From US20250171426A1, “PYRIMIDINEDIONE-BASED COMPOUNDS AS AXL, C-MET, AND MER INHIBITORS AND METHODS OF USE THEREOF” (CMG Pharmaceutical Co., Ltd., priority 2022, published 2025)

Experiments:
Assay type in all cases: biochemical
Settings in all cases: 10 μM ATP, 60 min, ADP-GLO luminescence
[1] = target: T1, AXL (Homo sapiens, UniProt P30530); test: Enzymatic assay (ADP-Glo kinase reaction), AXL
T1 sequence (P30530 26-894): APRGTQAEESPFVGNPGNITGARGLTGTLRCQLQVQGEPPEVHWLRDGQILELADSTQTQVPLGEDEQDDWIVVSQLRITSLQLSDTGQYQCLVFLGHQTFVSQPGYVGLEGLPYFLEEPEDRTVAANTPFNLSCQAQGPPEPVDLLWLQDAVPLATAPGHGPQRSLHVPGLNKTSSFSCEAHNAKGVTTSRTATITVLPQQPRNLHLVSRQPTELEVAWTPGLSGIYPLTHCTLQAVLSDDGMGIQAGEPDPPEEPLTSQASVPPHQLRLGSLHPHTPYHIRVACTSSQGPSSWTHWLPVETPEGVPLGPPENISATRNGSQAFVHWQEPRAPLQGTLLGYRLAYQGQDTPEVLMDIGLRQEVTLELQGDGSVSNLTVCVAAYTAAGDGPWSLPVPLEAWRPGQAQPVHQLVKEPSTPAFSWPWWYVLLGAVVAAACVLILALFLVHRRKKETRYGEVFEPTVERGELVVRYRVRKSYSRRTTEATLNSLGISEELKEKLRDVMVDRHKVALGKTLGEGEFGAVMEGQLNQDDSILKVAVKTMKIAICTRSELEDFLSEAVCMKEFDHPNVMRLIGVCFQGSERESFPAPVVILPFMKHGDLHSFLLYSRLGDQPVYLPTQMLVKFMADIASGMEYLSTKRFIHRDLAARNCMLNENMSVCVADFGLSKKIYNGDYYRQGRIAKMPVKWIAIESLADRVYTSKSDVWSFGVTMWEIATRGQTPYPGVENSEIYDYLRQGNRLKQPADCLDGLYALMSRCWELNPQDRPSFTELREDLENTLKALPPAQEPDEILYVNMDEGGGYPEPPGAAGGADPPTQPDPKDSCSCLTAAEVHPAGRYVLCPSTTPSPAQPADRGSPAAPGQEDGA
Procedure: (§1) All the kinase reactions were performed in 5 μL using tyrosine kinase buffer with 0.2 μg/μL poly (Glu4, Tyr1) substrate, 10 μM ATP, serial dilution of the inhibitor, and incubated at room temperature for 60 min. After the indicated incubation times, 5 μL ADP-GLO™ reagent (Promega, Madison, WI) was added to the reactions and the plate was incubated at room temperature for 40 min. […] All 384-well assay plates were read using a GLOMAX™ Discover Microplate Luminometer from Promega (Madison, WI). To plot, analyze the data and calculate all kinase reaction biochemical values, both Microsoft Excel and Prism from GraphPad 7 Software (La Jolla, CA) were used.

[2] = target: c-MET (Homo sapiens, UniProt P08581); test: Enzymatic assay (ADP-Glo kinase reaction), c-MET
Procedure: as §1

[3] = target: T2, MER (Homo sapiens, UniProt Q12866); test: Enzymatic assay (ADP-Glo kinase reaction), MER
T2 sequence (Q12866 21-999): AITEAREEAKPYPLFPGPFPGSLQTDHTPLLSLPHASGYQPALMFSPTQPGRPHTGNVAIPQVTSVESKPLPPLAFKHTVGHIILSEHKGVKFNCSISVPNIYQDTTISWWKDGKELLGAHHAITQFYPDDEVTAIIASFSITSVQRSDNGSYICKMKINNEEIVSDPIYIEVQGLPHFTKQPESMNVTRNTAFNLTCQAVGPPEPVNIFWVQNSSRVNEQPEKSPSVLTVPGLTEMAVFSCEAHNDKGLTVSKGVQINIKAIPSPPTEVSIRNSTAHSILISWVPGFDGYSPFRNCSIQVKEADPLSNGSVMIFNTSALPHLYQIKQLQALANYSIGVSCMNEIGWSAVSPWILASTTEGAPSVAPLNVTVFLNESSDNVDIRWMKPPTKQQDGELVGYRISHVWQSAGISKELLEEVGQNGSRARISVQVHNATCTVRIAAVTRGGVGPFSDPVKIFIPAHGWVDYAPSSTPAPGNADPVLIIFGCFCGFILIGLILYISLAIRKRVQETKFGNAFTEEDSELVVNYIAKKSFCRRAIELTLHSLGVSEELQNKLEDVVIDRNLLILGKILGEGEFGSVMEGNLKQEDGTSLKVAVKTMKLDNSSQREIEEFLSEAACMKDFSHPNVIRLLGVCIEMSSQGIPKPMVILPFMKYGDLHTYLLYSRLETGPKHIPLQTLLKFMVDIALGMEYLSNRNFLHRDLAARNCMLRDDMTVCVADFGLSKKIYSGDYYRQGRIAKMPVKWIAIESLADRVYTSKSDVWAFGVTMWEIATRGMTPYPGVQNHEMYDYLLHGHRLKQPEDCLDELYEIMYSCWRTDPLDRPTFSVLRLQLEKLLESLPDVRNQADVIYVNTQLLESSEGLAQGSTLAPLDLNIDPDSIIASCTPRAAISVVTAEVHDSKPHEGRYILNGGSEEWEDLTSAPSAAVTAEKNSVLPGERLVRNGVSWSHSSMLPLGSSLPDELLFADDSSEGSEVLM
Procedure: (§2) All the kinase reactions were performed in 5 μL using tyrosine kinase buffer with 0.2 μg/μL poly (Glu4, Tyr1) substrate, 10 μM ATP, serial dilution of the inhibitor, and incubated at room temperature for 60 min. After the indicated incubation times, 5 μL ADP-GLO™ reagent (Promega, Madison, WI) was added to the reactions and the plate was incubated at room temperature for 40 min. Then, 10 μL of kinase detection reagent was added and after an incubation time of 40 min, luminescence was recorded and IC50 values were determined (Table 1). All 384-well assay plates were read using a GLOMAX™ Discover Microplate Luminometer from Promega (Madison, WI). To plot, analyze the data and calculate all kinase reaction biochemical values, both Microsoft Excel and Prism from GraphPad 7 Software (La Jolla, CA) were used.
as §2, with “3).” for “1).”

Sequence of c-MET (P08581 25-1390): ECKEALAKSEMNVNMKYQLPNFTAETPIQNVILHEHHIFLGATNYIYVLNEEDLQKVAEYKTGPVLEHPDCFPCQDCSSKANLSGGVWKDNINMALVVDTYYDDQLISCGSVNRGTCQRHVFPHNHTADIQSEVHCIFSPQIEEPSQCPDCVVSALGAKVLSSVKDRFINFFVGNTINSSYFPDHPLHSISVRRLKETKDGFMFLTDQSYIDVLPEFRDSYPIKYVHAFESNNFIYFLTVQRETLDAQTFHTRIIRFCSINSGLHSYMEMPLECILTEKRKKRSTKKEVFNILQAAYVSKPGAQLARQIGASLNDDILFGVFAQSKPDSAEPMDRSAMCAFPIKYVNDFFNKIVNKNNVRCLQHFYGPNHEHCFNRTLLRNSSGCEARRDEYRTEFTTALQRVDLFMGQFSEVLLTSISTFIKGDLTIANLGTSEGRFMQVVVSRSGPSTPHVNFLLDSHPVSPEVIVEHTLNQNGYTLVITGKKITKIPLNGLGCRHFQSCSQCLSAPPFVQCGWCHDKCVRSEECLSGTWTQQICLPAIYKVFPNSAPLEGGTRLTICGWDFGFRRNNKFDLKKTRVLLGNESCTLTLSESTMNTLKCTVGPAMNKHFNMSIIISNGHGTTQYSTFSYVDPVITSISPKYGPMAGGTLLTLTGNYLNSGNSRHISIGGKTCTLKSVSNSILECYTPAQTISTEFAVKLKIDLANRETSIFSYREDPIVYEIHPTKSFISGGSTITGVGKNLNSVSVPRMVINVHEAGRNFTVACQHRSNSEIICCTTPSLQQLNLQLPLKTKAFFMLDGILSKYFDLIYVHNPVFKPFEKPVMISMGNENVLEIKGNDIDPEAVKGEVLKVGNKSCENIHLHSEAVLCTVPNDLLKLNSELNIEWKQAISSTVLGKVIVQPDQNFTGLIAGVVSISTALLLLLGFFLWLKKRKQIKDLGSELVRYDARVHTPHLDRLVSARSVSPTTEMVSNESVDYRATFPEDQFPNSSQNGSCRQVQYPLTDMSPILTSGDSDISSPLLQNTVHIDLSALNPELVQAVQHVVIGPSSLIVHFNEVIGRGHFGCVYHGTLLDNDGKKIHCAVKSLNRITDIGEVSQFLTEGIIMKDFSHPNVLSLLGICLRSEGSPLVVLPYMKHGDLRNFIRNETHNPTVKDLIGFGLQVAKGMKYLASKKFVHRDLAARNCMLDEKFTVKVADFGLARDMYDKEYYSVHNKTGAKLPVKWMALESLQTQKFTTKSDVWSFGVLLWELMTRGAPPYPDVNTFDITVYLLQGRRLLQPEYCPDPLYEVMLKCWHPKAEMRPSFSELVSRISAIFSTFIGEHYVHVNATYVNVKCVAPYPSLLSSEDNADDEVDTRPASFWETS

Row | IC50 [1] [nM] | IC50 [2] [nM] | IC50 [3] [nM] | SMILES
1 | < 100 | < 10000 | < 10 | CC(C)n1cc(C(=O)Nc2ccc(Oc3ccnc(N)c3-c3ccc(Oc4ccccc4)cc3)c(F)c2)c(=O)n(-c2ccc(F)cc2)c1=O [Example 10]
2 | < 100 | < 10000 | < 10 | Cc1noc(C)c1-c1c(Oc2ccc(NC(=O)c3cn(C(C)C)c(=O)n(-c4ccc(F)cc4)c3=O)cc2F)ccnc1N [Example 11]
3 | < 1000 | < 10000 | < 1000 | CCCn1cc(-c2c(Oc3ccc(NC(=O)c4cn(C(C)C)c(=O)n(-c5ccc(F)cc5)c4=O)cc3F)ccnc2N)cn1 [Example 12, N-(4-(2-amino-3-(1-propyl-1H-pyrazol-4-yl)pyridine-4-yloxy)-3-fluorophenyl)-3-(4-fluorophenyl)-1-isopropyl-2,4-dioxo-1,2,3,4-tetrahydropyrimidine-5-carboxamide]
4 | < 10 | < 1000 | < 10 | CCCn1cc(C#Cc2c(Oc3ccc(NC(=O)c4cn(C(C)C)c(=O)n(-c5ccc(F)cc5)c4=O)cc3F)ccnc2N)cn1 [Example 13, N-(4-(2-amino-3-((1-propyl-1H-pyrazol-4-yl)ethynyl)pyridin-4-yloxy)-3-fluorophenyl)-3-(4-fluorophenyl)-1-isopropyl-2,4-dioxo-1,2,3,4-tetrahydropyrimidine-5-carboxamide]
5 | < 10 | < 10 | < 10 | CC(C)n1cc(C(=O)Nc2ccc(Oc3ccnc(N)c3C#CC(=O)N3CCOCC3)c(F)c2)c(=O)n(-c2ccc(F)cc2)c1=O [Example 14, N-(4-(2-amino-3-(3-morpholino-3-oxoprop-1-ynyl)pyridin-4-yloxy)-3-fluorophenyl)-3-(4-fluorophenyl)-1-isopropyl-2,4-dioxo-1,2,3,4-tetrahydropyrimidine-5-carboxamide]
6 | < 10 | < 10 | – | CC(C)n1cc(C(=O)Nc2ccc(Oc3ccnc(N)c3C#CCN3CCOCC3)c(F)c2)c(=O)n(-c2ccc(F)cc2)c1=O [Example 24, N-(4-(2-amino-3-(3-morpholinoprop-1-ynyl)pyridin-4-yloxy)-3-fluorophenyl)-3-(4-fluorophenyl)-1-isopropyl-2,4-dioxo-1,2,3,4-tetrahydropyrimidine-5-carboxamide]

Further lines, the molecule ahead of its results:

Row | SMILES | IC50 [1] [nM] | IC50 [2] [nM] | IC50 [3] [nM]
7 | CC(C)n1cc(C(=O)Nc2ccc(Oc3ccnc(N)c3C#CC(=O)N3CCNCC3)c(F)c2)c(=O)n(-c2ccc(F)cc2)c1=O [Example 1, N-(4-(2-amino-3-(3-oxo-3-(piperazin-1-yl)prop-1-ynyl)pyridin-4-yloxy)-3-fluorophenyl)-3-(4-fluorophenyl)-1-isopropyl-2,4-dioxo-1,2,3,4-tetrahydropyrimidine-5-carboxamide] | < 10 | < 10 | < 10
8 | COCCN1CCN(C(=O)C#Cc2c(Oc3ccc(NC(=O)c4cn(C(C)C)c(=O)n(-c5ccc(F)cc5)c4=O)cc3F)ccnc2N)CC1 [Example 2, N-(4-(2-amino-3-(3-(4-(2-methoxyethyl)piperazin-1-yl)-3-oxoprop-1-ynyl)pyridin-4-yloxy)-3-fluorophenyl)-3-(4-fluorophenyl)-1-isopropyl-2,4-dioxo-1,2,3,4-teterahydropyrimidine-5-carboxamide] | < 10 | < 10 | < 10
9 | CC(C)n1cc(C(=O)Nc2ccc(Oc3ccnc(N)c3/C=C/C(=O)N3CCNCC3)c(F)c2)c(=O)n(-c2ccc(F)cc2)c1=O [Example 3, (E)-N-(4-(2-amino-3-(3-oxo-3-(piperazin-1-yl)prop-1-enyl)pyridin-4-yloxy)-3-fluorophenyl)-3-(4-fluorophenyl)-1-isopropyl-2,4-dioxo-1,2,3,4-tetrahydropyrimidine-5-carboxamide] | < 10 | < 100 | < 10
10 | COCCN1CCN(C(=O)/C=C/c2c(Oc3ccc(NC(=O)c4cn(C(C)C)c(=O)n(-c5ccc(F)cc5)c4=O)cc3F)ccnc2N)CC1 [Example 4, (E)-N-(4-(2-amino-3-(3-(4-(2-methoxyethyl)piperazin-1-yl)-3-oxoprop-1-enyl)pyridin-4-yloxy)-3-fluorophenyl)-3-(4-fluorophenyl)-1-isopropyl-2,4-dioxo-1,2,3,4-tetrahydropyrimidine-5-carboxamide] | < 10 | < 10 | < 10
11 | CC(C)n1cc(C(=O)Nc2ccc(Oc3ccnc(N)c3C#N)c(F)c2)c(=O)n(-c2ccc(F)cc2)c1=O [Example 5, N-(4-(2-amino-3-cyanopyridin-4-yloxy)-3-fluorophenyl)-3-(4-fluorophenyl)-1-isopropyl-2,4-dioxo-1,2,3,4-tetrahydropyrimidine-5-carboxamide] | < 10 | < 10 | < 10
12 | CC(C)n1cc(C(=O)Nc2ccc(Oc3ccnc(N)c3Cl)c(F)c2)c(=O)n(-c2ccc(F)cc2)c1=O [Example 6, N-(4-(2-amino-3-chloropyridin-4-yloxy)-3-fluorophenyl)-3-(4-fluorophenyl)-1-isopropyl-2,4-dioxo-1,2,3,4-tetrahydropyrimidine-5-carboxamide] | – | – | < 100
13 | CC(C)n1cc(C(=O)Nc2ccc(Oc3ccnc(N)c3-c3cnn(C)c3)c(F)c2)c(=O)n(-c2ccc(F)cc2)c1=O [Example 7] | < 10 | < 10 | < 100
14 | CC(C)n1cc(C(=O)Nc2ccc(Oc3ccnc(N)c3C#Cc3ccccn3)c(F)c2)c(=O)n(-c2ccc(F)cc2)c1=O [Example 9, N-(4-(2-amino-3-(pyridin-2-ylethnyl)pyridin-4-yloxy)-3-fluorophenyl)-3-(4-fluorophenyl)-1-isopropyl-2,4-dioxo-1,2,3,4-tetrahydropyrimidine-5-carboxamide] | < 10 | < 10 | < 100
